# Results published in patent publication US20110028552A1, “MEXILETINE AMINO ACID AND PEPTIDE PRODRUGS AND USES THEREOF” (priority 2009, published 2011).
# Several values for one entry are separate records, joined by “and”; a condition that tells them apart may be missing. Identical values can stand only once. Counter-ions that a name gives are not always drawn. Like-named read-outs stand apart in the source and are kept apart here.
# Experiments:
# [1] = tested on: rabbit stomach smooth muscle; assay: EFS-stimulated contractions of isolated rabbit stomach smooth muscle; details: rabbit stomach antrum strips; EFS 14 Hz
# [2] = Systemic availability of mexiletine in the dog after oral prodrug dosing; format: in vivo, Dog (Beagle); details: 1 mg/kg mexiletine free base
# Description: Test substances (i.e., mexiletine, and various mexiletine amino acid prodrugs) were administered by oral gavage to groups of five dogs. The characteristics of the test animals are set out in Table 6.
# Blood samples were taken at various times after administration and submitted to analysis for parent drug using a validated LC-MS-MS assay. Pharmacokinetic parameters derived from the plasma analytical were determined using Win Nonlin.
# hNav 1.1 channel = biological target: T1, hNav 1.1 channel (Homo sapiens, UniProt P35498); assay: Block of cloned hNav1.1 channel in CHO cells (IonWorks Quattro); format: cell-based; details: for IC50 fold above the parent: relative to mexiletine
# T1 construct: expressed in transfected cells
# Description: Data was corrected for leak current.
# The tonic block was calculated as:
# % Block (Tonic)=(1−ITP1,TA/ITP1,Control)×100%,
# where ITP1, Control and ITP1, TA are the inward peak Na^+ currents elicited by the TP1 in control and in the presence of a test article, respectively. 10 Hz Block—the frequency-dependent block at stimulation frequency 10 Hz was calculated as: […]
# where ITP11, Control and ITP11, TA are the inward peak Na^+ currents elicited by the TP11 in control and in the presence of a test article, respectively. The inactivation state block is defined as the decrease in test pulse (TP12) current amplitude due to the conditioning depolarizing pulse (TP11). The inactivation state block was calculated as:
# % Block (inactivation state)=(1−(ITP12,TA/ITP12,TA)×100%,
# where ITP12, Control and ITP12, TA are the inward peak Na^+ currents elicited by the TP12 in control and in the presence of a test article, respectively. Concentration-response data for the blocks were fit to an equation of the following form: […]
# [3] = Systemic availability of mexiletine in the cynomolgus monkey after oral prodrug dosing; format: in vivo; details: 1 mg/kg mexiletine free base
# [4] = mexiletine from prodrug vs parent
# Description: Blood samples were taken at various times after administration and submitted to analysis for the prodrug and parent drug using a validated LC-MS-MS assay. Pharmacokinetic parameters derived from the plasma analytical were determined using Win Nonlin.
# [5] = cited from earlier work
# [6] = cited from earlier work; remark: listed apart in the source
# sodium channel = details: De Bellis et al. (2006); cited from earlier work
# [7] = hNav1.1 in CHO cells, frequency-dependent block at 10 Hz (TP11), read-out: IC50 10 Hz block
# [8] = hNav1.1 in CHO cells, inactivation state block (TP12), read-out: IC50 Inactivated state
# [9] = hNav1.1 in CHO cells, tonic block (TP1), read-out: IC50 Tonic block
# [10] = hNav1.1, 10 Hz block, rounded values, read-out: IC50 values (with the 10 Hz block)
Compound,IC50 (hNav 1.1 channel; [7]),IC50 (hNav 1.1 channel; [8]),IC50 (hNav 1.1 channel; [9]),other results
Cc1cccc(C)c1OCC(C)NC(=O)CN.O=C(O)C(F)(F)F (racemic) [(rac)-mexiletine-glycine trifluoroacetate],107 µM,21.2 µM,398 µM,"calculated ED50, attenuation of EFS induced contractions [1]: 9.16 µM; F (abs) [2]: 57 ± 6%; F (abs) [3]: 41.5 ± 4.11%; Frel ([4]; individual ferrets, oral 10 mg free base equivalents/kg): 67% and 107% and 103% and 77% and 108% and 101%; Frel, Mean ([4]; mean of six ferrets): 94%; duration of vomiting relative to mexiletine (ferret; % of that seen after mexiletine itself): less than 30%; average number of vomits relative to parent drug (ferret; % of those observed after dosing the parent drug): less than 30%"
"Cc1cccc(C)c1OCC(C)N.Cl (racemic) [Mexiletine hydrochloride, (rac)-1-(2,6-dimethylphenoxy)-2-propanamine hydrochloride, reference compound]",38.2 µM,9.1 µM,115 µM,"calculated ED50, attenuation of EFS induced contractions [1]: 2.17 µM; IC50 (hNav 1.1 channel; [10]): 38 µM"
"Cc1cccc(C)c1OCC(C)NC(=O)[C@@H](N)CCCCN (mixture of isomers) [Mexiletine lysine amide, 2,6-diamino-hexanoic acid [2-(2,6-dimethylphenoxy)-1-methylethyl]-amide ditrifluoroacetate]",–,–,–,"calculated ED50, attenuation of EFS induced contractions [1]: 21.83 µM"
"Cc1cccc(C)c1OCC(C)NC(=O)[C@@H](N)CC[S+](C)C.Cl.[Cl-] (stereo partly drawn) [(S)-2-Amino-N-[2-(2,6-dimethyl-phenoxy)-1-methyl-ethyl]-4-(dimethyl-λ^4-sulfanyl chloride)-butyramide hydrochloride]",> 1000 µM,> 1000 µM,> 1000 µM,IC50 fold above the parent (hNav 1.1 channel; hNav1.1): ~20 fold
CNCC[C@H](Oc1cccc2ccccc12)c1cccs1 [Duloxetine],–,–,–,treated patients with nausea ([5]; FDA labeling): 20-40%
Cc1cccc(C)c1OCC(C)NC(=O)C(C)CN (stereo not drawn) [Mexiletine 2-methyl β alanine amide],51.8 µM,16.3 µM,137 µM,–
Cc1cccc(C)c1OCC(C)NC(=O)C1CC(O)CN1 (centres unmarked) [Mexiletine 4-hydroxyproline amide],37 µM,15.5 µM,147 µM,–
Cc1cccc(C)c1OCC(C)NC(=O)C(N)CCCNC(N)=O (centres unmarked) [Mexiletine citrulline amide],359 µM,180 µM,491 µM,–
Cc1cccc(C)c1OCC(C)NC(=O)C(N)C1CC1 (centres unmarked) [Mexiletine cyclopropyl glycine amide],170 µM,42.7 µM,475 µM,–
Cc1cccc(C)c1OCC(C)NC(=O)CN(C)C (centres unmarked) [Mexiletine dimethylglycine amide],10.3 µM,3.2 µM,30.5 µM,–
"Cc1cccc(C)c1OCC(C)NC(=O)[C@@H](N)CCC(=O)O.Cl (stereo partly drawn) [Mexiletine glutamic acid amide, (S)-4-Amino-4-[2-(2,6-dimethyl-phenoxy)-1-methyl-ethylcarbamoyl]-butyric acid hydrochloride]",> 1000 µM,> 1000 µM,> 1000 µM,IC50 (hNav 1.1 channel; [10]): > 1000 µM; IC50 fold above the parent (hNav 1.1 channel; hNav1.1): ~20 fold
"Cc1cccc(C)c1OCC(C)NC(=O)[C@@H](N)CCC(N)=O (stereo partly drawn) [Mexiletine glutamine amide, (S)-2-Amino-pentanedioic acid 5-amide 1-{[2-(2,6-dimethyl-phenoxy)-1-methyl-ethyl]-amide}hydrochloride]",139 µM,67.3 µM,751 µM,–
Cc1cccc(C)c1OCC(C)NC(=O)C(N)Cc1c[nH]cn1 (centres unmarked) [Mexiletine histidine amide],42.1 µM,21.2 µM,79.5 µM,–
"Cc1cccc(C)c1OCC(C)NC(=O)[C@@H](N)CCCCNC(=N)N (stereo partly drawn) [Mexiletine homoarginine amide, (S)-2-Amino-6-guanidino-hexanoic acid [2-(2,6-dimethyl-phenoxy)-1-methyl-ethyl]-amide dihydrochloride]",624 µM,257 µM,742 µM,IC50 (hNav 1.1 channel; [10]): 624 µM; IC50 fold above the parent (hNav 1.1 channel; hNav1.1): ~20 fold
Cc1cccc(C)c1OCC(C)NC(=O)c1ccncc1 (centres unmarked) [Mexiletine isonicotinic acid amide],439 µM,130 µM,818 µM,–
Cc1cccc(C)c1OCC(C)NC(=O)c1cccnc1 (centres unmarked) [Mexiletine nicotinic acid amide],350 µM,61.2 µM,495 µM,–
Cc1cccc(C)c1OCC(C)NC(=O)[C@@H](N)Cc1ccccc1.Cl (some centres unmarked) [Mexiletine phenylalanine amide],–,–,–,F (abs) [2]: 38 ± 6%
Cc1cccc(C)c1OCC(C)NC(=O)C1CCCCN1 (centres unmarked) [Mexiletine pipecolic acid amide],6 µM,2.7 µM,26 µM,–
CNCC(=O)NC(C)COc1c(C)cccc1C (centres unmarked) [Mexiletine sarcosine amide],38.9 µM,6.3 µM,186 µM,–
Cc1cccc(C)c1OCC(C)NC(=O)C(N)CO (centres unmarked) [Mexiletine serine amide],50.3 µM,14.1 µM,239 µM,–
Cc1cccc(C)c1OCC(C)NC(=O)C(N)C(C)O (centres unmarked) [Mexiletine threonine amide],41.4 µM,11.6 µM,234 µM,–
Cc1cccc(C)c1OCC(C)NC(=O)[C@@H](N)C(C)C.Cl (some centres unmarked) [Mexiletine valine amide],–,–,–,F (abs) [2]: 35 ± 6%
Cc1cccc(C)c1OCC(C)NC(=O)[C@@H](NC(=O)[C@@H](N)C(C)C)C(C)C.Cl (some centres unmarked) [Mexiletine valine-valine amide],–,–,–,F (abs) [2]: 50 ± 9%
Cc1cccc(C)c1OCC(C)NC(=O)CCN (stereo not drawn) [Mexiletine β alanine amide],59.5 µM,23.5 µM,245 µM,–
Cc1cccc(C)c1OCC(C)NC(=O)C(N)CN (stereo not drawn) [Mexiletine β amino alanine amide],180 µM,61.8 µM,478 µM,–
NCC1(CC(=O)O)CCCCC1 [gabapentin],–,–,–,Bioavailability ([6]; 900 mg/day gabapentin): approximately 60%; Bioavailability ([6]; 1200 mg/day gabapentin): ~47%; Bioavailability ([6]; 2400 mg/day gabapentin): ~34%; Bioavailability ([6]; 3600 mg/day gabapentin): ~33%; Bioavailability ([6]; 4800 mg/day gabapentin): ~27%
CC(C)C[C@H](CN)CC(=O)O [pregabalin],–,–,–,patients with dizziness and somnolence ([5]; patients treated at the higher doses (FDA labeling)): up to 30%
Para-hydroxymexiletine,–,–,–,sodium channel inhibitory activity retained vs parent molecule (sodium channel): around 25%
